Results on one compound are retold here after patent publication US12465585B2, “Compositions for the management of seizure induced neurotoxicity” (SAMI-SABINSA GROUP LIMITED, priority 2018, dated 2025).

What all share (type): in vivo
The subject of experiment [1] is cortex of the brain. Briefly: Anti-oxidant parameters in brain cortex, kainic acid induced seizure rat model. Conditions: KA seizure rat model, KA vs control. The procedure:
(§1) Two-month-old male Sprague-Dawley rats were purchased from commercial vendor and housed at 25°±2° C., with the humidity maintained at 55%, wood chip bedding, on a 12:12 hour dark/light cycle, with free access to food and water. All animal procedures were carried out in accordance with NIH and Auburn University Animal Care and Use Committee guidelines. The rats were divided into four groups (1. Control, 2. Kainic acid (10 mg/kg), 3. LD (Low Dose)-composition containing OBC 250 mg/kg+Kainic acid, and 4. High Dose (HD)-composition containing OBC 500 mg/kg+Kainic acid). Composition containing OBC was mixed with powdered feed and administered orally for 2 weeks prior to kainic-acid administration. […] Neuroscience. 1982; 7(10):2525-36; Jinde et al., Lack of kainic acid-induced gamma oscillations predicts subsequent CA1 excitotoxic cell death. Eur J Neurosci. 2009; 30(6):1036-55; Medvedev et al., Kainic acid induces distinct types of epileptiform discharge with differential involvement of hippocampus and neocortex. Brain Res Bull. 2000; 52(2):89-98). Typically, Racine scores include the following stages:
For the complete management of epilepsy, it is imperative to reduce the incidence of seizures and also to effectively manage and correct the damage to the neurons which is induced by recurrent seizure activity. Drugs which reduced the incidence of seizures may not effectively manage and correct the clinical conditions resulting from seizures. Failure to correct and manage such effects results in neurodegeneration. The ability of a composition comprising oroxylin A, baicalein and chrysin (OBC) [250 mg/kg—low dose (LD) and 500 mg/kg—high dose (HD)] to management of neurotoxicity associated by epilepsy was tested in kainic acid induced seizure rat model. The biochemical parameters like ROS, hydrogen peroxide, protein carbonyl levels, nitrite levels, glutathione content, mitochondrial activity, and caspase activity were estimated in the cortex of the rat models.

Experiment [2] concerns caspase 1. Briefly: Caspase 1 activity in brain cortex, kainic acid induced seizure rat model. Conditions: KA seizure rat model, KA vs control, OBC 250 and 500 mg/kg. The procedure:
as §1
(§2) For the complete management of epilepsy, it is imperative to reduce the incidence of seizures and also to effectively manage and correct the damage to the neurons which is induced by recurrent seizure activity. […]

For experiment [3], the system named is caspase 3. Briefly: Caspase 3 activity in brain cortex, kainic acid induced seizure rat model. Conditions: KA seizure rat model, KA vs control, OBC 250 and 500 mg/kg. The procedure: as §1, §2
[4] abbreviates: OBC 250 and 500 mg/kg oral 2 weeks.

For `C=C(C)[C@H]1CN[C@H](C(=O)O)[C@H]1CC(=O)O` [Kainic acid], in experiment [1] (OBC 250 and 500 mg/kg), the “Glutathione levels (FIG. 7)” value is on record as “decreased”. Moreover, in experiment [1] (setting [4]), the “Hydrogen peroxide levels (FIG. 4)” value is given as “significantly increased”, the “Lipid peroxidation (FIG. 5)” value is listed as “significantly increased”, the “Nitrite content (FIG. 3)” value is reported as “significantly increased” and the “Protein carbonyl content (FIG. 6)” value is on record as “significantly increased”. In addition, the “ROS generation (FIG. 2)” value in experiment [1] (setting [4]) is on record as “significantly increased”. In addition, the “Activity of caspase 1 (FIG. 9)” value in experiment [2] is “significantly increased”. Further, the “Activity of caspase 3 (FIG. 10)” value in experiment [3] is listed as “significantly increased”.
